Assay results: patent US11168052B2, “Carbamate derivative compounds, processes for preparing them and their uses” (BIO-PHARM SOLUTIONS CO., LTD., priority 2016, dated 2021)

Columns and labels:
[1] = test system: CFA-induced pain model in rats; experiment: Antiallodynic activity on Complete Freund's Adjuvant (CFA)-induced inflammatory pain model; type: in vivo, Sprague-Dawley rats; conditions: 50 mg/kg intraperitoneally, von Frey threshold relative to sham, 0.5 hr after administration; for response vs control in vivo at 50 mg/kg: Rattus norvegicus, ip, read-out: Efficacy of 50 mg/kg(%)
Method: Male, Sprague-Dawley rats (210-250 g, Nara Bio, Korea) were habituated for 1 week before surgery and allowed free access to food and water throughout the experimentation. Room temperature and humidity were maintained at 24±2 and 50±10%, respectively.
CFA-induced inflammatory pain was induced by the procedure of Nagakura et al. (2003) and Gregory P. et al. (2010) with minor modifications. CFA (sigma, USA) was injected in the right plantar with a 100 ul volume under gaseous anesthesia with isoflurane. Sham controls were injected with 100 ul of saline, and preparation of the vehicle controls were identical to the group treated with compound, except for administration of vehicles without indentical to the vihecle control group.
Tactile sensitivity (Mechanical allodynia) was evaluated using von Frey monofilaments before and after treatment, and animals were include in the study only if the withdrawal threshold value was less than 4 g. One week after CFA injection, CFA-infused animals, sham-operated animal, and vehicle-operated animals were tested for tactile sensitivity with von Frey monofilaments, with 3 trials for each animal. All Animals were placed in a stainless steel mashe chamber and habituated for 30 min in the test cage. The tactile sensitivity for ipsilateral hind paw was measured using the up-and-down method (Dixon, 1980) with seven von Frey monofilaments (0.4, 1, 2, 4, 6, 8, and 15 g) to 3 trials. The tactile sensitivity test was followed by Dixon's method (Dixon, 1980). The 50% paw withdrawal threshold for each paw was calculated using the following formula: [Xth]log=[vFr]log+ky where [vFr] is the force of the last von Frey used, k=0.2249 which is the average interval (in log units) between the von Frey monofilaments, and y is a value that depends upon the pattern of withdrawal responses (Dixon, 1980).
Antiallodynic effect of compounds was evaluated at the dose of 50 mg/kg (n=4-6), intraperitoneally administrated in a volume of 5 ul/g bw in a vehicle of 30% (v/v) PEG or 20% (v/v) Tween 80. The test was performed peak time of efficacy (0.5 hr) after compound administration.
The relative values compared to the sham (% control) were calculated and shown in Table 5, which show an antiallodynic effect of Compound 1 on CFA-induced pain model in rats.

[2] = test system: MES (electroshock) seizure in mice; experiment: Anti-epilepsy activity, MES test in mouse; type: in vivo, ICR mice
Method: (§1) In the MES test (Ref., G. Villetti et al. Neuropharmacology 40(2001) 866-878), an electrical stimulus (mice: 50 mA, 60 Hz, 0.2 sec, and rats: 150 mA, 60 Hz, 0.2 sec in the test animal) supplied by an 11A Shocker (IITC Life Science Company) was delivered through corneal electrodes. All mice or rats assigned to any electroshock at peak time were treated with each test compound sample which was dissolved in 20% tween 80 prepared by saline solvent applied orally before the test. […] Three doses of the test sample were administered orally to 9-18 animals (3-6 mice per dose) for evaluating the respective doses at which 50% of the animals were protected from seizure (ED50). The ED50 value (median effective dose) was calculated by Litchfield and Wicoxon log-probit method which is a dose-response relationship. Experimental animals, male ICR mice and male SD rats, were purchased from OrientBio, Samtako, or Nara Biotech, Korea, and housed in cages (4-5 mice or 3 rats per cage) for 4-5 days. The range of mice body weight was between 19 and 25 grams and range of rats body weight was between 100 and 130 grams.

[3] = test system: MES (electroshock) seizure in rats; experiment: Anti-epilepsy activity, MES test in rats; type: in vivo, SD rats; conditions: for ED50: Rattus norvegicus, po; for MES test (po) efficacy %: dose 10 mg/kg
Method: as §1

[4] = test system: PTZ (Pentylenetetrazol)-induced clonic seizure in mice; experiment: Anti-epilepsy activity, scPTZ test in mouse; type: in vivo, ICR mice
Text: (§2) In this experiment, each test compound sample was formulated as described in Biological Experimental Example 1, and administered intraperitoneally to the test animals (mice; ICR or Rat; SD); Experimental animals, male ICR mice and male SD rats, were purchased from OrientBio or Nara biotech, Korea, and housed 4-5 mice per a cage for 4-5 days. The range of mice body weight was used between 19 and 26 grams and range of rats body weight was used between 100 and 130 grams. After Peak time (0.5, 1, 2 and 4 hr) from the administration, PTZ (Pentylenetetrazol) was administered subcutaneously in the concentration capable of inducing 97% intermittent convulsions (mice: 100-110 mg/kg?bw, 10 μl/g, or rats: 90-110 mg/kg?bw, 2 μl/g). If clonic seizure was not observed for at least 30 minutes in the PTZ administered animal, it can be considered that the test compound has anti-epilepsy activity. The median effective dose (ED50) is determined using 6 animals per a concentration (total three different concentrations), and calculated by Litchfield and Wicoxon log-probit method which is a dose-response relationship.

[5] = test system: Lithium-pilocarpine induced seizure in rats; experiment: Lithium-pilocarpine induced epilepsy test (LI-PILO), prevention test; type: in vivo, Sprague-Dawley rats; conditions: i.p.
Method: Male Sprague-Dawley rats (purchased from Orient Bio Inc. Korea) of body weight 175 grams were used for these studies and 3 rats per cage were housed for 4-5 days. On the day prior to SE, rats received 127 mg/kg lithium chloride (Sigma, St. Louis, Mo., U.S.A.) intraperitoneally (i.p.). Approximately 18-20 h following this treatment, rats were given an i.p. injection of the concentration capable of inducing 97% intermittent convulsions pilocarpine(Sigma, 30-43 mg/kg). An i.p. injection of 2 mg/kg methyl-scopolamine (Sigma) was administered 30 min prior to pilocarpine to block the effects of the muscarinic agonist on peripheral cholinergic receptors. Test drugs were dissolved in 20% tween80 (Sigma).
The drugs were administered intraperitoneally (i.p.) in a volume of 2 μl/g body weight. Pharmacological effects of all of the test materials were evaluated to compare test groups (n=6) with a control group (n=6). Control group was administered vehicle only. The efficacy was measured 0.5, 1, 2, or 4 hours after the administration of the test material. The time point that the most animals were protected was defined as peak time and the ED50 was determined at peak time. The animals were then transferred to observation cages and observed continuously for 90 min Seizure was elicited in approximately 95% of the control group. Protection was defined as complete absence of seizure grade 3-5 (Racine scale; Racine, 1972) over the 90-min observation period. The effective dose of the compound necessary to protect 50% of the animals against seizures compared to controls (i.e., ED50) was determined by a curve fitting program (Excel 2007, Microsoft).

[6] = test system: acetic acid-induced writhes in ICR mice; experiment: Writhing test (acetic acid); type: in vivo; conditions: Mus musculus, po
Method: To examine the pain relief effect of the carbamate compounds, a writhing test was conducted, referring to Fischer, L. G. et al. (2008).
ICR mice (male, 24-28g; Orient Bio, Korea) were habituated before test (in test room) for 1 hour. Animals were fasted 2 hr before administration of compounds. Each of compounds was orally administered at the three dose, 10 ul/g, bw (n=3-5/group). All compounds were dissolved in a vehicle of 30% (v/v) PEG 400 or 20% (v/v) Tween 80. The control group was treated the vehicle without compounds.
0.2-2 hour after the administration of compounds, 0.6% acetic acid at the dose of 10 ul/g by bodyweight was injected into the mice Animals were habituated in the cage for 5 min. 5 min after habituation, the number of writhes (abdominal constriction) was counted for 15 min, referring to Korzeniewska-Rybicka, I. et al. (1998) and compared with that of a control.
The relative values compared to the control (% control) were calculated and shown in […]

[7] = test system: PTZ (Pentylenetetrazol)-induced clonic seizure in rats; experiment: Anti-epilepsy activity, scPTZ test in rats; type: in vivo, SD rats
Text: as §2

[8] = test system: ICR mice, tail-flick analgesia meter; experiment: Tail-flick test; type: in vivo; conditions: orally, withdrawal latency
Method: To examine the pain relief effect of the carbamate compounds, a tail-flick test was conducted, referring to Current Protocols in Neuroscience; Behavioral Neuroscience Unit 8.9.
ICR mice (male, 25-30g; Orient Bio, Korea) were habituated before test (in test room) for 1 hour. Animals were fasted 2 hr before administration of compounds. Each of Compound was orally administered at the 1-3 dose, 10 ul/g, by bodyweight (n=4-6/group). All compounds were dissolved in a vehicle of 30% (v/v) PEG 400 or 20% (v/v) Tween 80. The control group was treated the vehicle without compounds.
After the administration of compounds, the mice tail were put on a tail-flick analgesia meter. To avoid tissue damage, maximal exposure time to pain stimuli was restricted to 15 s. The withdrawal latency was measured to the time to the point when each mouse responded. The relative values compared to the control (% control) were calculated.
The relative values compared to the sham were calculated and shown in Table 7, which show effect of the compound of examples on tail-flick test in Mice.

[9] = po, read-out: MES test (po) efficacy %

Molecule	response vs control in vivo at 50 mg/kg [1] [%]	ED50 [3] [mg/kg]	Lithium pilocarpine model (pre) efficacy % ([5]; dose 100 mg/kg) [%]	ED50 ([2]; po) [mg/kg]	further results
8-chloro-1-hydroxy-1,2,3,4-tetrahydronaphthalen-2-yl carbamate (mixture of SR & RS) [Example 3]	–	–	–	–	Efficacy of 50 mg/kg(%) [1]: 22.9%; MES test (po) ED50 [2]: 27.3 mg/kg; MES test (po) ED50 [3]: 12.1 mg/kg; PTZ test (ip) ED50 [4]: 25.2 mg/kg
NC(=O)O[C@H]1CCc2cccc(Cl)c2[C@@H]1O [Example 5, (1S, 2S)-8-chloro-1-hydroxy-1,2,3,4-tetrahydronaphthalen-2-yl carbamate]	30	–	–	–	responders at 100 mg/kg [2, 9]: 100%; PTZ test (ip) efficacy % ([4]; dose 100 mg/kg): 100(16.6%)
NC(=O)O[C@@H]1CCc2cccc(F)c2[C@@H]1O [Example 10, (1S, 2R)-8-fluoro-1-hydroxy-1,2,3,4-tetrahydronaphthalen-2-yl carbamate]	35.2	17.5	66.6	–	responders at 100 mg/kg [2, 9]: 100%
NC(=O)O[C@H]1c2c(Cl)cccc2CC[C@H]1O [Example 18, (1S, 2R)-8-chloro-2-hydroxy-1,2,3,4-tetrahydronaphthalen-1-yl carbamate]	50.2	18.8	16.6	45.8	ED50 [6]: 55.6 mg/kg; scPTZ test (ip) efficacy % ([7]; dose 50 mg/kg): 50 (33.3%,
NC(=O)O[C@H]1c2c(F)cccc2CC[C@H]1O [Example 25, (1S, 2R)-8-fluoro-2-hydroxy-1,2,3,4-tetrahydronaphthalen-1-yl carbamate]	–	–	–	–	responders at 50 mg/kg ([2]; po, dose 50 mg/kg, read-out: MES test (po) efficacy %): 75%; MES test (po) efficacy % [3]: 33.3%; Lithium pilocarpine model (pre) efficacy % ([5]; dose 10 mg/kg): 33.3%
COCO[C@H]1c2c(Cl)cccc2CC[C@H]1OC(N)=O [Example 40, (1S, 2R)-8-chloro-1-(methoxymethoxy)-1,2,3,4-tetrahydronaphthalen-2-yl carbamate]	–	–	66.6	–	responders at 100 mg/kg [2, 9]: 100%
NC(=O)O[C@@H]1Cc2cccc(Cl)c2[C@@H]1O [Example 51, (1S, 2R)-7-chloro-1-hydroxy-2,3-dihydro-1H-inden-2-yl carbamate]	40.1	17.1	–	37	scPTZ test (ip) efficacy % ([7]; dose 100 mg/kg): 100 (33.3%,
NC(=O)O[C@H]1Cc2cccc(Cl)c2[C@@H]1O [Example 54, (1S, 2S)-7-chloro-1-hydroxy-2,3-dihydro-1H-inden-2-yl carbamate]	–	–	83.3	26.7	Tail-flick test Dose [8]: >200 mg/kg; MES test (po) efficacy % [3]: 33.3%
NC(=O)O[C@@H]1Cc2cccc(F)c2[C@@H]1O [Example 55, (1S, 2R)-7-fluoro-1-hydroxy-2,3-dihydro-1H-inden-2-yl carbamate]	34.4	–	33.3	51.9	–
NC(=O)O[C@H]1c2c(Cl)cccc2C[C@H]1O [Example 63, (1S, 2R)-7-chloro-2-hydroxy-2,3-dihydro-1H-inden-1-yl carbamate]	53.1	19.1	–	51.9	scPTZ test (ip) efficacy % ([7]; dose 100 mg/kg): 100 (83.3%,
NC(=O)O[C@@H]1c2c(Cl)cccc2C[C@@H]1O [Example 64, (1R, 2S)-7-chloro-2-hydroxy-2,3-dihydro-1H-inden-1-yl carbamate]	43.7	17.8	50	48.4	Tail-flick test Dose [8]: >200 mg/kg; scPTZ test (ip) efficacy % ([7]; dose 50 mg/kg): 50%
